Drawing on US8927559B2, “Quinazolinone-type compounds as CRTH2 antagonists” (Merck Sharp & Dohme Corp., priority 2010, dated 2015), this text covers Ki for 48 compounds.

SMILES strings stand for the structures.

For this assay, the target named is T1, CRTH2 receptor (hCRTH2) (Homo sapiens, UniProt Q9Y5Y4).
T1 construct: expressed in transfected cells; host or cells: HEK cells (HEK-hCRTH2 cell line), membranes
T1 sequence (Q9Y5Y4 1-395): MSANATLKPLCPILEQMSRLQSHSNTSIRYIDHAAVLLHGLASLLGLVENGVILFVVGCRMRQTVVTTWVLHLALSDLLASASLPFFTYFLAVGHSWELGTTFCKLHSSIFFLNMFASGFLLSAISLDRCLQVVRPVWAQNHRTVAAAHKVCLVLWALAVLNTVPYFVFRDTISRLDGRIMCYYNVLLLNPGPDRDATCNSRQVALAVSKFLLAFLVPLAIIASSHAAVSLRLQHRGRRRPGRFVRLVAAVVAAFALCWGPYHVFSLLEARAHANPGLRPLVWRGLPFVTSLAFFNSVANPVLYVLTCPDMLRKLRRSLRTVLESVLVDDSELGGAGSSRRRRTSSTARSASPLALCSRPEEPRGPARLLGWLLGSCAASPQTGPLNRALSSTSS
Kind of assay: Radioligand binding assay ([3H]PGD2 competition, membranes of HEK-hCRTH2 cell line). To be noted: 3.0 nM [3H]PGD2, HEK-hCRTH2 membranes, 60 min, room temperature; read-out: Ki. The method, boiled down:
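Membranes (8-20 μg protein) from HEK cells expressing human CRTH2 were incubated with [3H]PGD2 and competitor in 1% DMSO for 60 min at room temperature. Non-specific binding was defined with excess PGD2. Bound radioactivity was separated by filtration and counted by melt-on scintillation.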
In general, Ki refers to a measure of affinity in units of concentration, obtained from inhibition or displacement. `O=C(O)CCCCc1nc2cc(-c3noc(C4CCCc5ccccc54)n3)ccc2c(=O)n1-c1ccc(F)cc1` (stereo not drawn) [Example 245]: the Ki lay within 10 to 50 nM.

Consider `O=C(O)CCCCc1nc2cc(-c3noc(C4CCc5ccccc5C4)n3)ccc2c(=O)n1-c1ccc(F)cc1` (stereo not drawn) [Example 246], for which the inhibition constant (Ki) was at most 10 nM.

Take `O=C(O)CCCCc1nc2cc(-c3noc(C4CCc5ccccc5C4)n3)ccc2c(=O)n1-c1ccc(F)cc1` (stereo not drawn) [Example 247]: the inhibition constant Ki lay within 10 to 50 nM.

Turning to `O=C(O)CCCCc1nc2cc(-c3noc(-c4nc5ccc(F)cc5o4)n3)ccc2c(=O)n1-c1ccc(F)cc1` [Example 248], the Ki lay within 10 to 50 nM.

As to `CC(c1ccc(F)cc1)c1nc(-c2ccc3c(=O)n(-c4ccc(F)cc4)c(CCCCC(=O)O)nc3c2)no1` (stereo not drawn) [Example 249], the Ki lay within 10 to 50 nM.

As to `C=C(c1ccc(F)cc1)c1cc(-c2ccc3c(=O)n(-c4ccc(F)cc4)c(CCCCC(=O)O)nc3c2)no1` [Example 250], the Ki was at most 10 nM.

Consider `N#Cc1ccccc1C1CC(c2ccc3c(=O)n(-c4ccc(F)cc4)c(CCCCC(=O)O)nc3c2)=NO1` (stereo not drawn) [Example 251], for which the Ki was at most 10 nM.

For the compound `CC1(c2ccncc2)CC(c2ccc3c(=O)n(-c4ccc(F)cc4)c(CCCCC(=O)O)nc3c2)=NO1` (stereo not drawn) [Example 252], the Ki is at most 10 nM.

As for `CC1(c2cccnc2)CC(c2ccc3c(=O)n(-c4ccc(F)cc4)c(CCCCC(=O)O)nc3c2)=NO1` (stereo not drawn) [Example 253], the Ki was at most 10 nM.

Consider `CCCC1(c2ccccc2)CC(c2ccc3c(=O)n(-c4ccc(F)cc4)c(CCCCC(=O)O)nc3c2)=NO1` (stereo not drawn) [Example 254], for which the Ki was at most 10 nM.

Consider `CCCCC1(c2ccccc2)CC(c2ccc3c(=O)n(-c4ccc(F)cc4)c(CCCCC(=O)O)nc3c2)=NO1` (stereo not drawn) [Example 255], for which the inhibitory constant (Ki) was at most 10 nM.

In the case of `CC[C@@](O)(c1ccc(F)cc1)c1cc(-c2ccc3c(=O)n(-c4ccc(F)cc4)c(CCCCC(=O)O)nc3c2)no1` [Example 256], the Ki was at most 10 nM.

Turning to `CC[C@](O)(c1ccc(F)cc1)c1cc(-c2ccc3c(=O)n(-c4ccc(F)cc4)c(CCCCC(=O)O)nc3c2)no1` [Example 257], the Ki is at most 10 nM.

In the case of `C[C@@](O)(c1ccc(F)cc1)c1cc(-c2ccc3c(=O)n(-c4ccc(F)cc4)c(CCCCC(=O)O)nc3c2)no1` [Example 258], the Ki lay within 10 to 50 nM.

On to `C[C@](O)(c1ccc(F)cc1)c1cc(-c2ccc3c(=O)n(-c4ccc(F)cc4)c(CCCCC(=O)O)nc3c2)no1` [Example 259], for which the inhibition constant (Ki) is 10 to 50 nM.

Take `CC(c1ccc(F)cc1)c1cc(-c2ccc3c(=O)n(-c4ccc(F)cc4)c(CCCCC(=O)O)nc3c2)no1` (stereo not drawn) [Example 260]: the Ki is at most 10 nM.

In the case of `CCC(c1ccc(F)cc1)c1cc(-c2ccc3c(=O)n(-c4ccc(F)cc4)c(CCCCC(=O)O)nc3c2)no1` (stereo not drawn) [Example 261], the Ki is at most 10 nM.

For `CC(c1ccc(F)cc1)C1(C)CC(c2ccc3c(=O)n(-c4ccc(F)cc4)c(CCCCC(=O)O)nc3c2)=NO1` (stereo not drawn) [Example 262], the inhibition constant Ki is at most 10 nM.

For the compound `C[C@H](c1ccc(F)cc1)c1cc(-c2ccc3c(=O)n(-c4ccc(F)cc4)c(CCCCC(=O)O)nc3c2)no1` [Example 263], the Ki was at most 10 nM.

As to `C[C@@H](c1ccc(F)cc1)c1cc(-c2ccc3c(=O)n(-c4ccc(F)cc4)c(CCCCC(=O)O)nc3c2)no1` [Example 264], the inhibition constant (Ki) was at most 10 nM.

In the case of `C[C@@H](O)c1cc(-c2ccc3c(=O)n(-c4ccc(F)cc4)c(CCCCC(=O)O)nc3c2)no1` [Example 265], the inhibitory constant (Ki) lay in the range of 10 to 50 nM.

`C[C@@H](OCc1ccccc1)c1cc(-c2ccc3c(=O)n(-c4ccc(F)cc4)c(CCCCC(=O)O)nc3c2)no1` [Example 267]: the Ki was in the range of 10 to 50 nM.

Turning to `C[C@H](Oc1ccc(F)cc1)c1cc(-c2ccc3c(=O)n(-c4ccc(F)cc4)c(CCCCC(=O)O)nc3c2)no1` [Example 268], the inhibitory constant (Ki) was at most 10 nM.

Consider `O=C(O)CCCCc1nc2cc(-c3cc(COCc4cc(F)cc(F)c4)on3)ccc2c(=O)n1-c1ccc(F)cc1` [Example 269], for which the Ki is at most 10 nM.

`O=C(O)CCCCc1nc2cc(-c3cc(COCc4ccc(F)c(F)c4)on3)ccc2c(=O)n1-c1ccc(F)cc1` [Example 270]: the Ki is at most 10 nM.

As to `O=C(O)CCCCc1nc2cc(-c3cc(COCc4cc(F)cc(Cl)c4)on3)ccc2c(=O)n1-c1ccc(F)cc1` [Example 271], the inhibition constant Ki was at most 10 nM.

Consider `O=C(O)CCCCc1nc2cc(-c3cc(COCc4ccc(F)cc4F)on3)ccc2c(=O)n1-c1ccc(F)cc1` [Example 272], for which the Ki was at most 10 nM.

On to `C[C@@H](OCc1cccc(F)c1)c1cc(-c2ccc3c(=O)n(-c4ccc(F)cc4)c(CCCCC(=O)O)nc3c2)no1` [Example 273], for which the Ki was at most 10 nM.

As for `C[C@@H](OCc1ccc(F)c(F)c1)c1cc(-c2ccc3c(=O)n(-c4ccc(F)cc4)c(CCCCC(=O)O)nc3c2)no1` [Example 274], the Ki lay in the range of 10 to 50 nM.

For `O=C(O)CCCCc1nc2cc(-c3cc(COCc4cc(F)ccc4F)on3)ccc2c(=O)n1-c1ccc(F)cc1` [Example 275], the Ki was at most 10 nM.

As for `O=C(O)CCCCc1nc2cc(-c3cc(COCc4cccc(F)c4)on3)ccc2c(=O)n1-c1ccc(F)cc1` [Example 276], the inhibition constant Ki was at most 10 nM.

As to `O=C(O)CCCCc1nc2cc(-c3cc(COCc4ccccc4)on3)ccc2c(=O)n1-c1ccc(F)cc1` [Example 277], the Ki was in the range of 10 to 50 nM.

Consider `O=C(O)CCCCc1nc2cc(-c3cc(COCc4ccc(F)cc4)on3)ccc2c(=O)n1-c1ccc(F)cc1` [Example 278], for which the inhibitory constant (Ki) lay within 10 to 50 nM.

As for `O=C(O)CCCCc1nc2cc(-c3cc(COCc4ccccc4F)on3)ccc2c(=O)n1-c1ccc(F)cc1` [Example 279], the Ki is at most 10 nM.

On to `O=C(O)CCCCc1nc2cc(-c3cc(COCc4ccc(-c5ccccc5)cc4)on3)ccc2c(=O)n1-c1ccc(F)cc1` [Example 280], for which the inhibition constant (Ki) was 10 to 50 nM.

Take `O=C(O)CCCCc1nc2cc(-c3cc(COCc4cccc(-c5ccccc5)c4)on3)ccc2c(=O)n1-c1ccc(F)cc1` [Example 281]: the Ki was 10 to 50 nM.

Take `O=C(O)CCCCc1nc2cc(-c3cc(COCc4cccc(-c5ccccc5)c4)on3)ccc2c(=O)n1-c1ccc(F)cc1` [Example 282]: the inhibitory constant (Ki) is at most 10 nM.

On to `O=C(O)CCCCc1nc2cc(-c3cc(COCc4cccc5cccnc45)on3)ccc2c(=O)n1-c1ccc(F)cc1` [Example 283], for which the Ki lay within 10 to 50 nM.

In the case of `O=C(O)CCCCc1nc2cc(-c3cc(COCc4ccnc5ccccc45)on3)ccc2c(=O)n1-c1ccc(F)cc1` [Example 284], the Ki is 10 to 50 nM.

Consider `C[C@@H]1C(c2ccc3c(=O)n(-c4ccc(F)cc4)c(CCCCC(=O)O)nc3c2)=NO[C@@H]1c1ccccc1` [Example 285], for which the Ki was at most 10 nM.

For `C[C@H]1C(c2ccc3c(=O)n(-c4ccc(F)cc4)c(CCCCC(=O)O)nc3c2)=NO[C@@H]1c1ccccc1` [Example 286], the Ki was at most 10 nM.

As to `C[C@H]1ON=C(c2ccc3c(=O)n(-c4ccc(F)cc4)c(CCCCC(=O)O)nc3c2)[C@H]1c1ccccc1` [Example 287], the Ki is at most 10 nM.

As for `C[C@]1([C@H](O)c2ccc(F)cc2)CC(c2ccc3c(=O)n(-c4ccc(F)cc4)c(CCCCC(=O)O)nc3c2)=NO1` [Example 288], the inhibition constant Ki is 10 to 50 nM.

Take `C[C@@]1([C@H](O)c2ccc(F)cc2)CC(c2ccc3c(=O)n(-c4ccc(F)cc4)c(CCCCC(=O)O)nc3c2)=NO1` [Example 289]: the Ki was at most 10 nM.

On to `C[C@]1([C@@H](O)c2ccc(F)cc2)CC(c2ccc3c(=O)n(-c4ccc(F)cc4)c(CCCCC(=O)O)nc3c2)=NO1` [Example 290], for which the inhibition constant (Ki) was at most 10 nM.

As to `C[C@@]1([C@@H](O)c2ccc(F)cc2)CC(c2ccc3c(=O)n(-c4ccc(F)cc4)c(CCCCC(=O)O)nc3c2)=NO1` [Example 291], the inhibition constant (Ki) was 10 to 50 nM.

On to `C[C@]1(Cc2ccc(F)cc2)CC(c2ccc3c(=O)n(-c4ccc(F)cc4)c(CCCCC(=O)O)nc3c2)=NO1` [Example 292], for which the Ki lay within 10 to 50 nM.

Take `C[C@@]1(Cc2ccc(F)cc2)CC(c2ccc3c(=O)n(-c4ccc(F)cc4)c(CCCCC(=O)O)nc3c2)=NO1` [Example 293]: the inhibition constant (Ki) was 10 to 50 nM.
